{
  "source": "paper PMC6450887",
  "about": "“Metabolic resistance of the D-peptide RD2 developed for direct elimination of amyloid-β oligomers” (Scientific Reports, 2019)",
  "key": {"[1]": {"assay": "Stability in human plasma, RP-HPLC", "assay_type": "in vitro ADME", "conditions": "female, 37 °C", "protocol": "(§1) The preparation of the media was performed as described before in Elfgen et al.[24]. Preparation of simulated gastric and intestinal fluid (SGF & SIF) was done according to the European Pharmacopoeia 7.0. Plasma samples were obtained from human blood of a volunteer donor. Pooled human liver microsomes were purchased from Sekisui XenoTech (Kansas City, USA; H1000, Lot: 0710494 and 1210270; H1500, Lot: 1210079), from Sigma-Aldrich (St. Louis, USA; M0692, Lot: SLBL1433V; M0567, Lot: SLBR2706V and SLBN7300V) and from Gibco, Thermo Fisher Scientific (Waltham, USA; HMMCPL, Lot: PL050; HMMCPM, Lot: PL039). Pooled Sprague Dawley rat liver microsomes were purchased from Sigma-Aldrich (St. Louis, USA; M9066, Lot: SLBN0707V) and from Gibco, Thermo Fisher Scientific (Waltham, USA; RTMCPL, Lot: RT053). Pooled cynomolgus monkey liver microsomes were purchased from Gibco, Thermo Fisher Scientific (Waltham, USA; MKMCPL, Lot: MK062) and from Sekisui XenoTech (Kansas City, USA; P2000, Lot: 1210334). The liver microsomes were diluted in an NADPH regenerating system (NRS).\n(§2) For the stability tests, 150 µM RD2 or L-RD2 was incubated in SGF, SIF, human plasma and human liver microsomes in triplicate at 37 °C with slight shaking for different time periods. To prevent microbial contaminations in long-term plasma incubations, 0.1% sodium azide was added to the solutions. Microsomal long-term activity was examined by incubating microsomes without peptide for up to 24 h and adding L-RD2 after 8 and 24 h. The ability to degrade L-RD2 served as indicator for their activity. For the comparison of RD2 metabolite profiles across species, 150 µM RD2 was incubated in human, rat and cynomolgus liver microsomes at 37 °C for 2 and 24 h. The peptides were extracted by precipitating the proteins with trichloroacetic acid (TCA) and subsequent centrifugation, as described previously in Elfgen et al.[24]. Peptides immediately extracted from the media and precipitated media without peptides served as controls.\nFor sample analysis from stability tests (see 2.3), mobile phases were acetonitrile (A) and water (B) each supplemented with 0.15% trifluoroacetic acid (TFA) (v/v). The samples were measured isocratically at 10% solvent A for 30 min. This run conditions allowed us to detect smallest chemical changes including the differentiation between the original compound and a deamidated version (Fig. S1). RD2 and L-RD2 can potentially be deamidated at two sites, the C-terminus and the asparagine at position seven. Peak areas of the unmetabolized peptides after different incubation times were normalized to the peptides’ peak areas after direct extraction from the media. […] A chromatographic metabolite profile of L-RD2 in SIF was recorded with the same mobile phases but using a gradient from 0 to 30% solvent A in 30 min."}, "[2]": {"assay": "Comparison of RD2 metabolite profiles across species: rat liver microsomes", "assay_type": "in vitro ADME", "protocol": "as §1\nas §2, with “The peptides were extracted by precipitating the proteins with trichloroacetic acid (TCA) and subsequent centrifugation, as described previously in Elfgen et al.[24]. Peptides immediately extracted from the media and precipitated media without peptides served as controls.” left out\n(§3) For the comparison of RD2 metabolite profiles across species (see 2.3), mobile phases were acetonitrile (A) and water (B) each supplemented with 0.1% TFA. […] The amount of the purified HSM-3 was calculated based on a calibration curve of 10 to 100 µM RD2 extracted from human liver microsomes."}, "[3]": {"assay": "Stability in simulated gastric fluid (SGF), RP-HPLC", "assay_type": "in vitro ADME", "conditions": "37 °C, read-out: unmetabolized peptide remaining (remained stable)", "protocol": "as §1, with “The liver microsomes were diluted in an NADPH regenerating system (NRS).” left out\nFor sample analysis from stability tests (see 2.3), mobile phases were acetonitrile (A) and water (B) each supplemented with 0.15% trifluoroacetic acid (TFA) (v/v). The samples were measured isocratically at 10% solvent A for 30 min. […] A chromatographic metabolite profile of L-RD2 in SIF was recorded with the same mobile phases but using a gradient from 0 to 30% solvent A in 30 min."}, "[4]": {"biological_target": "CYP2D6 (Homo sapiens, UniProt P10635)", "sequence (P10635 whole entry, canonical isoform)": "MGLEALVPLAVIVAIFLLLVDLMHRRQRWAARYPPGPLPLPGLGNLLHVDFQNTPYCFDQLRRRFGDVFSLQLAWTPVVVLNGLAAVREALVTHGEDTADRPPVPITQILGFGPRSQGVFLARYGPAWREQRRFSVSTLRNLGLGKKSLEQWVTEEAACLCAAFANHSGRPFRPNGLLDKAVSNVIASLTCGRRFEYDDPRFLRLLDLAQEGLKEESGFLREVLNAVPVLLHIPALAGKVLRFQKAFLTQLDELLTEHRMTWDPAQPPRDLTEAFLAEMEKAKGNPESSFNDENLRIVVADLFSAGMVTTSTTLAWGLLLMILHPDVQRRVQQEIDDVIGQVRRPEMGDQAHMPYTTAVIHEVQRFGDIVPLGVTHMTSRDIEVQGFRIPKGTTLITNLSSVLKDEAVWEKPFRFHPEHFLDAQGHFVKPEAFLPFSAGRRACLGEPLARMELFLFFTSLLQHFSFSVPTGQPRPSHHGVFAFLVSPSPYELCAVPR", "assay": "CYP isoform inhibition in human liver microsomes (Cyprotex)", "assay_type": "in vitro ADME", "protocol": "The experiments were performed by Cyprotex. […] All assays were performed sevenfold."}, "[5]": {"biological_target": "CYP2C9 (Homo sapiens, UniProt P11712)", "sequence (P11712 whole entry, canonical isoform)": "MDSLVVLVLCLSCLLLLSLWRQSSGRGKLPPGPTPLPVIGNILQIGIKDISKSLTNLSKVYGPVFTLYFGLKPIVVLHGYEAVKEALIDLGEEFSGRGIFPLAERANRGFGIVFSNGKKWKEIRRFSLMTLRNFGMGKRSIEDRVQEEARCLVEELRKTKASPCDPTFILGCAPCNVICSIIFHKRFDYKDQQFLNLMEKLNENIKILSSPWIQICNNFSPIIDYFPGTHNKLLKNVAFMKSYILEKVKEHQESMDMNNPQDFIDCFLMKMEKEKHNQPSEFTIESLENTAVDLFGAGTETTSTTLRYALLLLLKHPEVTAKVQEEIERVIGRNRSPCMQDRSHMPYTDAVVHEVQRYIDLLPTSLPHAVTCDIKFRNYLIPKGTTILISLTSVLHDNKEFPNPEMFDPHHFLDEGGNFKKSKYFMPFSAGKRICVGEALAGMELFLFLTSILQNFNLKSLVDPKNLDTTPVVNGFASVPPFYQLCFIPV", "assay": "CYP isoform inhibition in human liver microsomes (Cyprotex)", "experimental": "The experiments were performed by Cyprotex. […] The reactions were terminated by methanol and the generated metabolites were monitored by LC-MS/MS or fluorescence. […] All assays were performed sevenfold. […] For all other substrates, the termination plates were centrifuged at 2,500 rpm and 4 °C for 30 min and aliquots of the supernatants were combined and transferred to fresh 96-well plates. Formic acid in deionized water (final concentration 0.1%) containing internal standard was added to the supernatants prior to cassette analysis by LC-MS/MS. A decrease in the formation of the metabolite compared to the vehicle control was used to calculate the IC50 values."}, "[6]": {"assay": "Comparison of RD2 metabolite profiles across species: cynomolgus liver microsomes", "assay_type": "in vitro ADME, cynomolgus monkey", "protocol": "as §1\nas §2, with “The peptides were extracted by precipitating the proteins with trichloroacetic acid (TCA) and subsequent centrifugation, as described previously in Elfgen et al.[24]. Peptides immediately extracted from the media and precipitated media without peptides served as controls.” left out\nas §3"}, "[7]": {"system": "rat", "parameters": "method as in complete study will be published elsewhere", "conditions": "oral, up to high doses, ref complete study will be published elsewhere; cited from earlier work"}, "[8]": {"assay": "Comparison of RD2 metabolite profiles across species: human liver microsomes", "assay_type": "in vitro ADME", "protocol": "as §1, §2\nFor the comparison of RD2 metabolite profiles across species (see 2.3), mobile phases were acetonitrile (A) and water (B) each supplemented with 0.1% TFA. The gradient ran from 0 to 100% solvent A and is described in detail in Table S1. The chromatographic RD2 metabolite profiles were screened for potential human-specific metabolites. RD2 and the major RD2 metabolite present after 24 h of incubation in human liver microsome batches 7 and 8, HSM-3, were purified by RP-HPLC. Mobile phases were acetonitrile (A) and water (B) each supplemented with 0.15% TFA. The samples were separated isocratically at 10% solvent A for 30 min. RD2 as well as HSM-3 were collected and the samples were freeze-dried subsequently. The amount of the purified HSM-3 was calculated based on a calibration curve of 10 to 100 µM RD2 extracted from human liver microsomes."}, "[9]": {"assay": "Stability in human liver microsomes, RP-HPLC / UHPLC-ESI-QTOF-MS", "assay_type": "in vitro ADME", "protocol": "as §1, §2\nFor sample analysis from stability tests (see 2.3), mobile phases were acetonitrile (A) and water (B) each supplemented with 0.15% trifluoroacetic acid (TFA) (v/v). The samples were measured isocratically at 10% solvent A for 30 min. This run conditions allowed us to detect smallest chemical changes including the differentiation between the original compound and a deamidated version (Fig. S1). RD2 and L-RD2 can potentially be deamidated at two sites, the C-terminus and the asparagine at position seven. Peak areas of the unmetabolized peptides after different incubation times were normalized to the peptides’ peak areas after direct extraction from the media. […] A chromatographic metabolite profile of L-RD2 in SIF was recorded with the same mobile phases but using a gradient from 0 to 30% solvent A in 30 min. […]"}},
  "note": "Non-standard residues stand in square brackets, D forms with d. Residues, ends and D or L forms follow the SMILES beside them.",
  "data": [
    {"smiles": "CC(C)C[C@@H](NC(=O)[C@H](NC(=O)[C@H]1CCCN1)[C@H](C)O)C(=O)N[C@H](Cc1c[nH]cn1)C(=O)N[C@@H](C(=O)N[C@H](Cc1c[nH]cn1)C(=O)N[C@H](CC(N)=O)C(=O)N[C@H](CCCNC(=N)N)C(=O)N[C@H](CCCNC(=N)N)C(=O)N[C@H](CCCNC(=N)N)C(=O)N[C@H](CCCNC(=N)N)C(=O)N[C@H](CCCNC(=N)N)C(N)=O)[C@H](C)O", "note": "[RD2, ptlhthnrrrrr] (H-[dP][dT][dL][dH][dT][dH][dN][dR][dR][dR][dR][dR]-NH2)", "values": [
      {"measurement": "metabolised at 480 h, 150 µM", "setting": "[1]; 150 µM, within 20 days, read-out: peptide degraded", "value": "87 ± 3", "unit": "%"},
      {"measurement": "half-life at 150 µM", "setting": "[1]; read-out: half-life (first order kinetics fit) (converted)", "value": 216, "unit": "h"},
      {"measurement": "metabolised at 24 h, 150 µM", "setting": "[2]; Sprague Dawley, pooled rat liver microsomes, rat samples, 24 h, read-out: decrease of the intensity of the RD2 peak", "value": "17 ± 4", "unit": "%"},
      {"measurement": "metabolization of RD2 after 2 h", "setting": "[2]; rat liver microsomes, 150 µM, 2 h", "value": "unmetabolized"},
      {"measurement": "remaining at 24 h, 150 µM", "setting": "[3]", "value": "≥ 97", "unit": "%"},
      {"measurement": "inhibition of CYP2D6", "setting": "[4]; concentration range 0 to 25 µM", "value": "did not inhibit"},
      {"measurement": "inhibition at 0.25 µM", "setting": "[4]; human, human liver microsomes, 0.25 µM RD2", "value": 1.33, "unit": "%"},
      {"measurement": "inhibition at 1 µM", "setting": "[4]; human, human liver microsomes, 1 µM RD2", "value": 0.671, "unit": "%"},
      {"measurement": "inhibition at 2.5 µM", "setting": "[4]; human, human liver microsomes, 2.5 µM RD2", "value": 3.53, "unit": "%"},
      {"measurement": "inhibition at 10 µM", "setting": "[4]; human, human liver microsomes, 10 µM RD2", "value": -5.9, "unit": "%"},
      {"measurement": "inhibition at 25 µM", "setting": "[4]; human, human liver microsomes, 25 µM RD2", "value": -9.57, "unit": "%"},
      {"measurement": "inhibition of CYP2C9", "setting": "[5]; concentration range 0 to 25 µM", "value": "did not inhibit"},
      {"measurement": "inhibition at 0.25 µM", "setting": "[5]; human, human liver microsomes", "value": 6.15, "unit": "%"},
      {"measurement": "inhibition at 1 µM", "setting": "[5]; human, human liver microsomes", "value": -0.871, "unit": "%"},
      {"measurement": "inhibition at 2.5 µM", "setting": "[5]; human, human liver microsomes", "value": 0.607, "unit": "%"},
      {"measurement": "inhibition at 10 µM", "setting": "[5]; human, human liver microsomes", "value": -7.38, "unit": "%"},
      {"measurement": "inhibition at 25 µM", "setting": "[5]; human, human liver microsomes", "value": -26.8, "unit": "%"},
      {"measurement": "metabolization of RD2 after 2 h", "setting": "[6]; cynomolgus liver microsomes, 150 µM, 2 h", "value": "unmetabolized"},
      {"measurement": "metabolised at 24 h, 150 µM", "setting": "[6]; monkey, pooled cynomolgus monkey liver microsomes, cynomolgus samples, 24 h, read-out: decrease of the intensity of the RD2 peak", "value": "9 ± 2", "unit": "%"},
      {"measurement": "toxic effects of orally administered RD2", "setting": "[7]", "value": "does not cause toxic effects up to high doses"},
      {"measurement": "metabolization of RD2 after 2 h", "setting": "[8]; human samples 1–6, 150 µM, 2 h", "value": "unmetabolized"},
      {"measurement": "decrease of the intensity of the RD2 peak", "setting": "[8]; human samples 1–6, 24 h", "value": "21 ± 7", "unit": "%"},
      {"measurement": "peptide metabolized", "setting": "[9]; 150 µM, 37 °C, within 24 h", "value": "33 ± 3", "unit": "%"},
      {"measurement": "deamidation in human liver microsomes", "setting": "[9]; UHPLC-ESI-QTOF-MS", "value": "not deamidated"}
    ]}
  ]
}
